In patent publication US5753661A, “Fused benzo compounds containing a nitrogen heterocycle for the treatment of central nervous system disorders” (priority 1992, dated 1998):

Tests used:
5-HT1A = conditions: cited from earlier work
5-HT1A receptor [1] = molecular target: T1, 5-HT1A receptor (Rattus norvegicus, UniProt P19327); assay: Generalization to the discriminative stimulus properties induced by 8-OH-DPAT in rats (8-OH-DPAT cue, agonism); format: in vivo, rat (male Wistar); design: from tissue; host or cells: living male Wistar rat (in vivo, endogenous receptor); conditions: for ED50: rat, sc, usually 30 or 45 min before test; for agonist activity/efficacy in words, 8-OH-DPAT cue: 8-OH-DPAT cue model, s.c.
T1 sequence (P19327 1-422): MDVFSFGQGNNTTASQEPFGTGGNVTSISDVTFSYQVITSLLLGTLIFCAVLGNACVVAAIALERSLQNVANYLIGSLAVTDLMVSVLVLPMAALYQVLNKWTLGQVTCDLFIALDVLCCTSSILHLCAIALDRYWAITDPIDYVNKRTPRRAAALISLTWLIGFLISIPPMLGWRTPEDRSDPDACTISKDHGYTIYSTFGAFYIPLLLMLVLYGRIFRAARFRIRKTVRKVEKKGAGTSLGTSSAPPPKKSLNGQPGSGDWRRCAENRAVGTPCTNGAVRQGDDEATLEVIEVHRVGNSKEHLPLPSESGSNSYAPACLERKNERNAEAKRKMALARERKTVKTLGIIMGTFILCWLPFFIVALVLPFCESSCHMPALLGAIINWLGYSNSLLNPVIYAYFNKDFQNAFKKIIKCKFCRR
Text: Generalization to the Discriminative Stimulus Properties Induced by 8-OH-DPAT in Rats
This test is used to determine the 5-HT1A receptor agonistic effect of a test compound in vivo. A related method is described by Tricklebank, M. D., supra; Amt, J. Pharmacology & Toxicology, 1989, 64, 165.
The per cent drug responce obtained for each dose of test compound is used to calculate ED50 values by log-probit analysis.

5-HT1A receptor [2] = molecular target: T1, 5-HT1A receptor; assay: Inhibition of 5-MeO-DMT-induced 5-HT syndrome in rats; format: in vivo, rat (male Wistar); design: Male Wistar rats (Mol:Wist) weighing 170-240 g are used; from tissue; host or cells: living male Wistar rat (Mol:Wist) (in vivo, endogenous receptor); conditions: sc, 5-MeO-DMT 5 mg/kg s.c., inhibition of piano playing
Text: Inhibition of 5-MeO-DMT-Induced 5-HT Syndrome in Rats
The so-called 5-HT syndrome is a characteristic pattern of behaviours which are induced by 5-HT agonists with effects on 5-HT, possibly 5-HT1A receptors (Smith, L. M. and Peroutka, S. J., Pharmacol. Biochem. & Behaviour, 1986, 24, 1513; Tricklebank, M. et al, Eur. J. Pharmacol. 1985, 117, 15). This test is a test for determining the antagonist effects of a test compound on 5-HT1A receptors in vivo by measuring the ability to inhibit 5-MeO-DMT induced 5-HT syndrome.
Male Wistar rats (Mol:Wist) weighing 170-240 g are used. Test substance is injected s.c. before 5-MeO-DMT 5 mg/kg, s.c. Four rats are used for each dose. A control group pretreated with saline is included each test day. 10, 15 and 20 min later the rats are observed for presence of serotonin (5-HT) syndrome. The following symptoms are recorded: 1) forepaw treading ("piano playing"), 2) head weaving and 3) hindleg abduction. Furthermore, flat motility is scored. Each part of the syndrome is scored as follows: marked effect (score 2), weak syndrome (score 1) and no effect (score 0). The scores of the three observation periods are added. Thus the maximum obtainable score for four rats is 24. The effect of the test substance is expressed as percent inhibition relative to the control group.
The percent inhibition of the piano playing syndrome is used as the response and ED50 value are calculated by log-probit analysis.

5-HT1A receptor [3] = molecular target: T1, 5-HT1A receptor; assay: Antagonism of the discriminative stimulus properties induced by 8-OH-DPAT in rats (8-OH-DPAT cue); format: in vivo, rat (male Wistar); design: from tissue; host or cells: living male Wistar rat (in vivo, endogenous receptor); conditions: sc, before 8-OH-DPAT 0.4 mg/kg i.p.
Method: Antagonism of the Discriminative Stimulus Properties Induced by 8-OH-DPAT in Rats.
This test is used to determine the 5-HT1A receptor antagonistic effect of a test compound in vivo. A related method is described by Tricklebank, M. D., et al, Eur. J. Pharmacol, 1987, 133, 47-56; Amt, J. Pharmacology & Toxicology, 1989, 64, 165.
Male Wistar rats are trained to discriminate between 8-OH-DPAT (0.4 mg/kg, i.p., 15 min pretreatment) and physiological saline in operant chambers equipped with two response levers. Between the levers a dipper is placed, where water rewards (0.1 ml) are presented. The rats are water deprived for at least 24 h and work in a fixed ratio (FR) schedule (final FR=32).
Following 8-OH-DPAT administration, responding is reinforced only on a designated (drug) lever, whereas responding on the opposite lever has no consequences. Following saline administration, responding is reinforced on the lever opposite to the drug lever. Drug and saline trials alternate randomly between days. The level of discrimination accuracy is expressed as the per cent drug responses and is calculated as the number of correct responses ×100 divided by the sum of the correct and incorrect responses before the first reward. The time to the first reward is also recorded as a measure of reaction time. When stable accuracy (mean correct responding=90%; individual rats at least 75% correct responding) is obtained test sessions are included between training days. Test compound is injected s.c. or p.o. at appropriate time before 8-OH-DPAT and the test begins 15 min after 8-OH-DPAT injection. The test trial is terminated when a total of 32 responses are made on either lever or when 20 min have elapsed. No reward is given and the rats have free access to water for 20-30 min after the test. The effects are expressed as per cent inhibition of drug responding. Only results from rats making at least 10 responses on one lever are included in data analysis. Furthermore, only test sessions in which at least half of the rats respond are included.
The per cent inhibition of drug response obtained for each dose of test compound is used to calculate ED50 values by log-probit analysis.

5-HT1A receptor [4] = molecular target: T1, 5-HT1A receptor; assay: Inhibition of 3H-8-OH-DPAT binding to serotonin 5-HT1A receptors in rat brain in vitro; design: 5-HT1A receptors in membranes from rat brain minus cerebellum; from tissue; host or cells: rat brain minus cerebellum, membranes; conditions: 3H-8-OH-DPAT 1 nM; membranes from rat brain minus cerebellum; read-out: IC50, 3H 8-OH-DPAT binding
Method: Inhibition of ^3 H-8-OH-DPAT Binding to Serotonin 5-HT1A Receptors in Rat Brain in vitro.
By this method the inhibition by drugs of the binding of the 5-HT1A agonist 3H-8-OH-DPAT (1 nM) to 5-HT1A receptors in membranes from rat brain minus cerebellum is determined in vitro . Accordingly, this is a test for affinity for the 5-HT1A receptor. The assay was performed as described by Hyttel et al., Drug Dev. Res. 1988, 15, 389-404.

ED50 (5-HT1A receptor [1]) | ED50 (5-HT1A receptor [2]) | ED50 (5-HT1A receptor [3]) | IC50 (5-HT1A receptor [4]) | agonist activity/efficacy in words, 8-OH-DPAT cue (5-HT1A receptor [1]) | response, 8-OH-DPAT cue agonism (5-HT1A receptor [1]; at 0.04-10 μmol/kg, s.c. (note a)) | response, 8-OH-DPAT cue agonism (5-HT1A receptor [1]; at 0.6-2.4 μmol/kg, s.c. (note c)) | Compound | 5-HT1A agonist activity, in words (5-HT1A) | antidepressant and anxiolytic effects, in words (5-HT1A; Schipper et al, Human Psychopharm., 1991)
3.1 µmol/kg | 6.6 µmol/kg | > 11 µmol/kg | 16 nM | – | – | – | O=C1N(CCCN2CCN(c3cccc4c3OCCO4)CC2)CCN1c1ccccc1 [Compound 2a, 1-[3-[4-(1,4-Benzodioxan-5-yl)-1-piperazinyl]-1-propyl]-3-phenyl-2-imidazolidinone] | – | –
> 11 µmol/kg | 8.9 µmol/kg | 2.7 µmol/kg | 18 nM | – | – | – | O=C1N(CCN2CCN(c3cccc4c3OCCO4)CC2)CCN1C1CCCC1 [Compound 2b, 1-[2-[4-(1,4-Benzodioxan-5-yl)-1-piperazinyl]ethyl]-3-cyclopentyl-2-imidazolidinone] | – | –
0.76 µmol/kg | 15 µmol/kg | > 2.6 µmol/kg | 13 nM | – | – | – | O=C1N(CCN2CCN(c3cccc4c3OCCO4)CC2)CCN1c1ccccc1 [Compound 2c, 1-[2-[4-(1,4-Benzodioxan-5-yl)-1-piperazinyl]ethyl]-3-phenyl-2-imidazolidinone] | – | –
– | 4.7 µmol/kg | 6.1 µmol/kg | 0.45 nM | partial agonist | – | 20-60% | O=C1N(CCCCN2CCN(c3cccc4c3OCCO4)CC2)CCN1C1CCCCC1 [Compound 2e, 1-[4-[4-(1,4-Benzodioxan-5-yl)-1-piperazinyl]-1-butyl]-3-cyclohexyl-2-imidazolidione] | – | –
1.6 µmol/kg | 10 µmol/kg | > 11 µmol/kg | 37 nM | – | – | – | O=C1N(CCCN2CCN(c3cccc4c3OCC4)CC2)CCN1c1ccccc1 [Compound 2g, 1-[3-[4-(2,3-Dihydrobenzofuran-7-yl)-1-piperazinyl]-1-propyl]-3-phenyl-2-imidazolidinone] | – | –
27 µmol/kg | 9 µmol/kg | 23 µmol/kg | 51 nM | – | – | – | CC(C)N1CCN(CCN2CCN(c3cccc4c3OCCO4)CC2)C1=O [Compound 2o, 1-[2-[4-(1,4-Benzodioxan-5-yl)-1-piperazinyl]ethyl]-3-isopropyl-2-imidazolidinone] | – | –

More lines, now with the values behind:

Compound | ED50 (5-HT1A receptor [1]) | ED50 (5-HT1A receptor [2]) | ED50 (5-HT1A receptor [3]) | IC50 (5-HT1A receptor [4]) | agonist activity/efficacy in words, 8-OH-DPAT cue (5-HT1A receptor [1]) | response, 8-OH-DPAT cue agonism (5-HT1A receptor [1]; at 0.04-10 μmol/kg, s.c. (note a)) | response, 8-OH-DPAT cue agonism (5-HT1A receptor [1]; at 0.6-2.4 μmol/kg, s.c. (note c)) | 5-HT1A agonist activity, in words (5-HT1A) | antidepressant and anxiolytic effects, in words (5-HT1A; Schipper et al, Human Psychopharm., 1991)
O=C1CC2(CCCC2)CC(=O)N1CCCCN1CCN(c2ncccn2)CC1 [Buspirone, 8-[4-[4-(2-pyrimidyl)-1-piperazinyl]butyl]-8-azaspiro[4,5]decane-7,9-dione] | – | – | – | – | – | – | – | 5-HT1A partial agonists | –
O=S(=O)(CCCN1CCN(c2cccc3c2OCCO3)CC1)C1CCCCC1 [Compound 1a, 1-(1,4-Benzodioxan-5-yl)-4-(3-cyclohexylsulfonyl-1-propyl)piperazine] | 0.034 µmol/kg | 2.3 µmol/kg | > 0.62 µmol/kg | 2.6 nM | – | – | – | – | –
CC(C)S(=O)(=O)CCCN1CCN(c2cccc3c2OCCO3)CC1 [Compound 1e, 1-(1,4-Benzodioxan-5-yl)-4-(3-isopropylsulfonyl-1-propyl)piperazine] | – | 5.1 µmol/kg | > 10 µmol/kg | 23 nM | partial agonist | 30-75% | – | – | –
O=C(NCCN1CCN(c2cccc3c2OCC(CO)O3)CC1)c1ccc(F)cc1 (stereo not shown) [Flesinoxane, 4-fluoro-N-[2-(4-(2-hydroxymethyl-1,4-benzodioxan-5-yl)piperazine-1-yl)ethyl]benzamide, reference compound] | 0.38 µmol/kg | > 44 µmol/kg | – | 4 nM | – | – | – | high efficacy 5-HT1A agonist | antidepressant and anxiolytic effects
